Patent publication US10357496B2, “Methods, formulations, and kits for rapidly repleting folate levels in women” (SOUTH ALABAMA MEDICAL SCIENCE FOUNDATION, priority 2011, dated 2019)

Columns and labels:
[1] = system: mice homozygous for loss of folate binding protein 1; conditions: 10.75 to 43.0 micromoles/kg/day; untreated mice died in utero; optimal between days E7-E9; cited from earlier work
[2] = cited from earlier work
recurrent NTD = conditions: 4 mg/day; cited from earlier work
[3] = cited from earlier work; remark: listed apart in the source
[4] = type: in vivo, women
NTD = conditions: 400 μg/d, cited from earlier work
cleft lip/palate = conditions: periconceptual administration; cited from earlier work
heart defects = conditions: periconceptional use; cited from earlier work
Trial B: serum B12 = type: in vivo, women
From the text: It is believed that this may be due to uptake of the plasma B12 into the tissues of the deficient or mildly deficient subjects. None the less, by day 12 nearly half of the subjects were still in the normal range.

[5] = Trial A: serum B12 by Immulite 2000 assay; type: in vivo, women; conditions: three daily 0.5 mg doses, by 72 hours, subjects (n=6) with screening values below 330 pg/mL
Experimental: Serum B12 was determined using the Immulite 2000 assay.
The average vitamin B12 levels specifically for those subjects (n=6) with screening values below 330 pg/mL are shown in FIG. 2 (dotted line). By 72 hours after initiation of the three doses, serum B12 increased on average by about 80 pg/mL, and then fell slightly. Levels below 200 pg/mL are considered to be deficient, and those between 200 and 350 pg/mL are generally considered to be low-normal. Data beyond day 5 are not available for this trial, since only one of those with sub-optimal B12 status volunteered to continue.

[6] = Experimental: A study of the rate of increase of serum folate with 5-methyl-6S-tetrahydrofolate (6S-5-MTHF) was performed with women of child bearing age (final range: 20 to 44 years old). Volunteers were screened for fasting serum folate, and the lower quintile enrolled (n=21 participants). On the first day, a baseline fasting blood sample was obtained using a serum separator tube, and then a 7.5 mg (16.3 micromoles) oral dose of 6S-5-MTHF along with 0.5 mg of cyanocobalamin was administered. After 24 hours (day 2) and again after 48 hours (day 3) fasting blood samples were withdrawn, and the same doses of 6S-5-MTHF and vitamin B12 were administered. At 72 hours (day 4) and 96 hours (day 5), further blood samples were withdrawn, but without administration of vitamins for the first 10 Subjects.
These subjects returned on days 12 and 19 to provide serum samples. Compliance was established by counting the excess tablets at the end of the study.
The serum samples were frozen and then initially analyzed for total folate using the Immulite 2000 competitive binding assay, and later by microbiological assay using L. rhamnosus. Serum B12 was determined using the Immulite 2000 assay. This study and the following trials B and C were performed with approval by the Institutional Review Board of the University of South Alabama.

[7] = Trial B
[8] = Trial B; microbiological assay
[9] = after 4 weeks of 800 μg (Brämswig et al.)

Nc1nc2c(c(=O)[nH]1)N(C=O)C(CNc1ccc(C(=O)N[C@@H](CCC(=O)O)C(=O)O)cc1)CN2 (some centres unmarked) [5-formyl-tetrahydrofolate]
survival and malformations of knockout mice [1]: some of these mice survived, but were subject to malformations

CN1c2c(nc(N)[nH]c2=O)NCC1CNc1ccc(C(=O)N[C@@H](CCC(=O)O)C(=O)O)cc1 (some centres unmarked) [5-methyltetrahydrofolate]
survival and malformations of knockout mice [1]: some of these mice survived, but were subject to malformations
time to reach plateau in the plasma ([2]; 400 μg/d, young women): 12 weeks

Nc1nc2ncc(CNc3ccc(C(=O)N[C@@H](CCC(=O)O)C(=O)O)cc3)nc2c(=O)[nH]1 [folic acid]
recurrent NTD prevented compared to the control group (recurrent NTD): 72%
average red cell folate level [3, 9]: 919 nM
time of treatment to elevate red cell concentrations to 906 nM ([3]; daily dose of 800 μg): 4.2±3.5 weeks
average plasma folate level [2, 9]: 50 nM
number of subjects below 44 nM total folate by the third day ([4]; Trial C): 9
number of subjects below 50 nM total folate by the fourth day ([4]; Trial C): 10
percent of subjects failing to achieve greater than 37 nM serum total folate by the second day ([4]; Trial C): 40%
number of subjects failing to achieve greater than 37 nM serum total folate by the second day ([4]; Trial C, of 20): 8
highest serum total folate in any measurement, single slow-responding subject ([4]; female, human, in vivo): ≤ 32 nM
NTD cases after treatment, southern region (NTD; 10 per 10,000 births before intervention): 6 per 10,000
NTD cases after treatment, northern region (NTD; 48 per 10,000 births before intervention): 10 per 10,000
reduction in recurrence of orofacial clefts (meta-analysis) (cleft lip/palate): two thirds
decrease in the prevalence of heart defects (heart defects): 20%

cyanocobalamin
rate of increase of serum B12 (Trial B: serum B12; Trial B three daily 1.0 mg doses versus Trial A 0.5 mg doses): considerably greater than observed with the 0.5 mg doses
subjects with serum B12 still in the normal range by day 12 (Trial B: serum B12; Trial B, after three daily 1.0 mg doses): nearly half
half life of fall of serum B12 after discontinuation (Trial B: serum B12; Trial B, after three daily 1.0 mg doses, approximate exponential): about 2%
subjects with serum B12 in the normal range by day 4 (Trial B: serum B12; Trial B, three daily 1.0 mg doses): 88%
average increase of serum B12 [5]: about 80 pg/mL

CN1c2c(nc(N)[nH]c2=O)NC[C@@H]1CNc1ccc(C(=O)N[C@@H](CCC(=O)O)C(=O)O)cc1 [6S-5-MTHF, 5-methyl-6S-tetrahydrofolate]
number of subjects not reaching greater than 37 nM serum total folate by the second day ([6]; Trial A): three
percent of subjects not reaching greater than 37 nM serum total folate by the second day ([6]; Trial A): 15%
total folate of all subjects by the fourth day ([6]; in vivo): above 55 nM
total folate of all subjects by the third day ([6]; in vivo): above 44 nM
average serum level maintained over the next two weeks ([7]; 0.8 mg/d 6S-5-MTHF starting on day 4): higher than 66 nM
average serum 5-MTHF, day 5 ([7]; 48 hours after last 7.5 mg dose, 0.8 mg/d maintenance from day 4): 74 nM
average serum 5-MTHF, day 4 ([7]; five 7.5 mg doses every 12 hours, 24 hours after last 7.5 mg dose): 98 nM
total folate: women below 50 nM during the study [8]: only a single person was ever below 50 nM
